Key:
[1] = target: T1, Induced myeloid leukemia cell differentiation protein Mcl-1 (Homo sapiens, UniProt Q07820); assay: Inhibition of FAM-Bid peptide binding to Mcl1 (unknown origin) expressed in Escherichia coli BL21 by fluorescence polarization-based binding assay
[2] = target: T1, Induced myeloid leukemia cell differentiation protein Mcl-1; assay: Inhibition of biotin-Bim peptide binding to Mcl1 (unknown origin) expressed in Escherichia coli BL21 by ELISA
[3] = target: T1, Induced myeloid leukemia cell differentiation protein Mcl-1; assay: Binding affinity to Mcl1 (unknown origin) expressed in Escherichia coli BL21 by ITC assay
[4] = tested on: K562; assay: Induction of apoptosis in Mcl1 dependent human K562 cells after 48 hrs by Annexin V staining based flow cytometry; assay type: functional, cell-based; conditions: K562, 48 h
[5] = tested on: RS4-11; assay: Induction of apoptosis in Bcl2 dependent human RS4:11 cells after 48 hrs by Annexin V staining based flow cytometry; assay type: functional, cell-based; conditions: RS4-11, 48 h

T1 sequence (Q07820 whole entry): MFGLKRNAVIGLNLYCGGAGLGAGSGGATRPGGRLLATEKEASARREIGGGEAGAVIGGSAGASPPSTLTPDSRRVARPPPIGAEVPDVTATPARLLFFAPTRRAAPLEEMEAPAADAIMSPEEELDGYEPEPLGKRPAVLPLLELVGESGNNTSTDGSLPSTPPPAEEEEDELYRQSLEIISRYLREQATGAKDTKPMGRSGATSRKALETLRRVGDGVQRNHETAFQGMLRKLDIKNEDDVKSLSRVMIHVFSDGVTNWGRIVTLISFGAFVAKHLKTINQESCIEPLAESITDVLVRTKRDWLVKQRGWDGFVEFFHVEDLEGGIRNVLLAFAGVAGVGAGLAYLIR

IC50 ([1]; read-out: IC50) [µM] | Ki ([1]; read-out: Ki) [µM] | IC50 [2] [µM] | Ki [2] [µM] | SMILES | other results
261 | 10.4 |  |  | N#Cc1cc(-c2ccccc2)c[nH]c1=O | 
158 | 6.32 |  |  | N#Cc1cc(-c2cccc3ccccc23)cnc1O | 
205 | 8.19 |  |  | N#Cc1cc(-c2ccc(Cl)cc2)c[nH]c1=O | 
316 | 12.6 |  |  | N#Cc1cc(-c2ccc(-c3ccccc3)cc2)cnc1O | 
82.2 | 3.29 |  |  | N#Cc1cc(Sc2ccccc2)c[nH]c1=O | 
63.1 | 2.52 |  |  | Cc1ccc(Sc2cnc(O)c(C#N)c2)cc1 | 
178 | 7.09 |  |  | CCC(C)(C)c1ccc(Sc2cnc(O)c(C#N)c2)cc1 | 
133 | 5.31 |  |  | N#Cc1cc(Sc2ccc(N)cc2)c[nH]c1=O | 
383 | 15.3 |  |  | CC(C)c1ccc(Sc2cc(C#N)c(=O)n(Cc3ccccc3)c2)cc1 | 
 |  | 0.054 | 0.0537 | CC(C)c1ccc(Sc2cnc(O)c(C(=O)NCc3ccccc3)c2)cc1 | Kd [3]: 0.98 µM; IC50 [4]: 0.84 µM
 |  | 0.192 | 0.191 | CC(C)c1ccc(Sc2cnc(O)c(C(=O)NCCCc3ccccc3)c2)cc1 | 

Second part, the molecule before the results:

SMILES | IC50 ([1]; read-out: IC50) [µM] | Ki ([1]; read-out: Ki) [µM] | IC50 [2] [µM] | Ki [2] [µM] | other results
N#CC(C#N)=c1c(=O)c2cccc3cccc1c32 | 71.5 | 2.85 |  |  | 
N#Cc1ccc[nH]c1=O | 2730 | 109 |  |  | 
CC(C)c1ccc(Sc2c[nH]c(=O)c(C#N)c2)cc1 | 21.5 | 0.86 | 0.89 | 0.891 | 
N#Cc1cc(Sc2ccc(Br)cc2)c[nH]c1=O | 121 | 4.83 |  |  | 
CC(C)NC(=O)c1cc(Sc2ccc(C(C)C)cc2)c[nH]c1=O |  |  | 0.501 | 0.468 | 
CCCCNC(=O)c1cc(Sc2ccc(C(C)C)cc2)c[nH]c1=O |  |  | 0.241 | 0.224 | 
COc1ccnc(O)c1C#N |  |  |  |  | IC50 [1]: Not Active; Ki [1]: Not Active
N#CC1=C2C(=NC1=O)c1cccc3c(N4CCSCC4)ccc2c13 |  |  | 0.046 | 0.0457 | 
CN(C)CC[C@H](CSc1ccccc1)Nc1ccc(S(=O)(=O)NC(=O)c2ccc(N3CCN(Cc4ccccc4-c4ccc(Cl)cc4)CC3)cc2)cc1[N+](=O)[O-] [ABT 737] |  |  |  |  | IC50 [4]: 16.4 µM; IC50 [5]: 0.27 µM
O=C1C(=O)c2cccc3cccc1c23 [ACENAPHTHOQUINONE] | 1420 | 57 |  |  | 
Cc1cc2c(C(C)C)c(O)c(O)c(C=O)c2c(O)c1-c1c(C)cc2c(C(C)C)c(O)c(O)c(C=O)c2c1O [GOSSYPOL] | 4.8 | 0.19 | 0.17 | 0.214 | 

From ChEMBL document CHEMBL2311300, “Fragment-based design, synthesis, and biological evaluation of N-substituted-5-(4-isopropylthiophenol)-2-hydroxynicotinamide derivatives as novel Mcl-1 inhibitors” (Eur J Med Chem, 2013)
